Test results: the supplement of paper PMC13380429

Key:
Conditions in all cases: 72 h
Vero E6 [1] = experiment: relative viability EC50 (midpoint between 100% and the lowest measured viability); higher = less toxic
HepG2 [2] = experiment: as above
Caco-2 [3] = experiment: as above
Vero E6 [4] = experiment: drug sensitivity score (DSS) for viability; higher = more toxic; extreme values may be limits of the assay
HepG2 [5] = experiment: as above
Caco-2 [6] = experiment: as above
Vero E6 [7] = experiment: cell viability relative to DMSO; higher = less toxic
HepG2 [8] = experiment: as above
Caco-2 [9] = experiment: as above
U2OS [10] = experiment: relative viability EC50 (midpoint between 100% and the lowest measured viability); higher = less toxic
Calu-3 [11] = experiment: as above
U2OS [12] = experiment: drug sensitivity score (DSS) for viability; higher = more toxic; extreme values may be limits of the assay
Calu-3 [13] = experiment: as above
U2OS [14] = experiment: cell viability relative to DMSO; higher = less toxic
Calu-3 [15] = experiment: as above

| SMILES | relative viability EC50 (Vero E6 [1]) | relative viability EC50 (HepG2 [2]) | relative viability EC50 (Caco-2 [3]) | drug sensitivity score (Vero E6 [4]) | drug sensitivity score (HepG2 [5]) | drug sensitivity score (Caco-2 [6]) | cell viability (Vero E6 [7]; 1 nM) | cell viability (Vero E6 [7]; 10 nM) | cell viability (Vero E6 [7]; 100 nM) | cell viability (Vero E6 [7]; 1000 nM) | cell viability (Vero E6 [7]; 10000 nM) | cell viability (HepG2 [8]; 1 nM) | cell viability (HepG2 [8]; 10 nM) | cell viability (HepG2 [8]; 100 nM) | cell viability (HepG2 [8]; 1000 nM) | cell viability (HepG2 [8]; 10000 nM) | cell viability (Caco-2 [9]; 1 nM) | cell viability (Caco-2 [9]; 10 nM) | cell viability (Caco-2 [9]; 100 nM) | cell viability (Caco-2 [9]; 1000 nM) | cell viability (Caco-2 [9]; 10000 nM) | relative viability EC50 (U2OS [10]) | relative viability EC50 (Calu-3 [11]) | drug sensitivity score (U2OS [12]) | drug sensitivity score (Calu-3 [13]) | cell viability (U2OS [14]; 1 nM) | cell viability (U2OS [14]; 10 nM) | cell viability (U2OS [14]; 100 nM) | cell viability (U2OS [14]; 1000 nM) | cell viability (U2OS [14]; 10000 nM) | cell viability (Calu-3 [15]; 1 nM) | cell viability (Calu-3 [15]; 10 nM) | cell viability (Calu-3 [15]; 100 nM) | cell viability (Calu-3 [15]; 1000 nM) | cell viability (Calu-3 [15]; 10000 nM) |
| --- | --- | --- | --- | --- | --- | --- | --- | --- | --- | --- | --- | --- | --- | --- | --- | --- | --- | --- | --- | --- | --- | --- | --- | --- | --- | --- | --- | --- | --- | --- | --- | --- | --- | --- | --- |
| CC1=CC[C@@H](C(C)(C)O)C[C@@H]1O [sobrepin] | > 10 µM | > 10 µM | > 10 µM | 0 | 0 | 0 | 98% | 99.7% | 96.3% | 98.1% | 90.7% | 109% | 99.6% | 114% | 103% | 110% | 109% | 121% | 94.4% | 103% | 87.9% | – | – | – | – | – | – | – | – | – | – | – | – | – | – |
| C=C(C)[C@@H]1CC[C@]2(C(=O)O)CC[C@]3(C)[C@H](CC[C@@H]4[C@@]5(C)CC[C@H](O)C(C)(C)[C@@H]5CC[C@]43C)[C@@H]12 [betulinic-acid] | – | > 10 µM | > 10 µM | – | 0 | 0 | – | – | – | – | – | 109% | 97.4% | 114% | 101% | 113% | 102% | 108% | 92.3% | 112% | 102% | > 10 µM | > 10 µM | 0 | 0 | 101% | 101% | 98% | 99% | 95% | 93.1% | 97.9% | 93% | 106% | 100% |
| O=c1[nH]c(=O)n([C@H]2C[C@H](O)[C@@H](CO)O2)cc1/C=C/Br [brivudine] | – | – | > 10 µM | – | – | 0 | – | – | – | – | – | – | – | – | – | – | 97% | 111% | 104% | 109% | 100% | > 10 µM | – | 0 | – | 94.4% | 98.5% | 94.5% | 104% | 98% | – | – | – | – | – |
| CC(C)OC(=O)[C@H](C)N[P@](=O)(CO[C@H](C)Cn1cnc2c(N)ncnc21)Oc1ccccc1 [tenofovir-alafenamide] | – | 1.75 µM | > 10 µM | – | 4.8 | 0 | – | – | – | – | – | 98.8% | 91.9% | 116% | 89% | 44.6% | 99.3% | 100% | 98.2% | 108% | 94.3% | > 10 µM | > 10 µM | 0 | 0.5 | 99.4% | 102% | 97.4% | 100% | 95.6% | 106% | 97.4% | 112% | 104% | 78.9% |
| Cc1ccc(NCCCc2ccccc2)c(N)c1 [NFKB-activation-inhibitor-II] | – | > 10 µM | > 10 µM | – | 0 | 0 | – | – | – | – | – | 110% | 97.1% | 103% | 98.2% | 100% | 89.4% | 85% | 92.6% | 98.4% | 79.9% | > 10 µM | > 10 µM | 0 | 0.1 | 98.9% | 102% | 94.9% | 102% | 93.2% | 90% | 93.8% | 94.7% | 103% | 84.1% |
| c1cc(Nc2cc(C3CC3)n[nH]2)nc(Nc2ccc3[nH]cnc3c2)n1 [APY-29] | 1.97 µM | 0.339 µM | – | 7 | 16.6 | 1.9 | 101% | 94.1% | 93.5% | 86.9% | 13.8% | 96.4% | 94.2% | 93.1% | 14.2% | 5.2% | 88.9% | 101% | 94.7% | 94.8% | 72.5% | 1.05 µM | 0.337 µM | 10.9 | 11.2 | 95.2% | 102% | 100% | 55.4% | 5.4% | 98.1% | 100% | 102% | 37.8% | 66.9% |
| c1cnc(SCc2cccnc2)nc1 [tasuldine] | > 10 µM | > 10 µM | > 10 µM | 0 | 0 | 0 | 105% | 98.5% | 96.7% | 102% | 99.7% | 105% | 105% | 105% | 106% | 97.9% | 96.5% | 96.9% | 101% | 94.8% | 101% | > 10 µM | – | 0 | – | 101% | 96.3% | 101% | 94.3% | 99.9% | – | – | – | – | – |
